Experimental data as given in PubChem BioAssay AID1159536 (DiRusso Lab, Biochemistry Department, University of Nebraska, 2015).
Records with an inconclusive call do not appear. The source made the active and inactive calls. How the calls were made is not given here.

Key:
[1] = compounds raising TAG storage in Chlamydomonas – qHTS, Chlamydomonas reinhardtii, dose response (AID 1159536); settings: Chlamydomonas reinhardtii, Nile Red lipid fluorescence, 72 h; at 30 µM (top of the series)
[2] = system: Chlamydomonas reinhardtii, Nile Red lipid fluorescence, 72 h; experiment: as above

Structure (SMILES)	fold change vs untreated, higher = more lipid [1]	EC50 [2]
Cc1ccc(Cn2cnc3c(cnn3-c3ccccc3)c2=O)c(C)c1	3 (inactive)	
Cc1c(C(=O)Nc2ccccc2C(=O)NCc2ccccc2)cccc1[N+](=O)[O-]	2.77 (inactive)	
CC(=O)Nc1ccc(OCC(=O)Nc2cc(Cl)cc(Cl)c2)cc1	2.48 (inactive)	
COc1cc(-c2ccc(NC(=O)c3ccco3)c(OC)c2)ccc1NC(=O)c1ccco1	1.4 (inactive)	
Cc1cc(Br)ccc1OCC(=O)NCc1ccc2c(c1)OCO2	1.4 (inactive)	
O=C(NC1CCN(Cc2ccccc2)CC1)c1ccc(Cl)cc1Cl	12.2	
Cc1ccc(CN2CCC(C(=O)NCc3ccccc3Cl)CC2)cc1	15.2	
Cc1ccc(N2CCN(CCc3ccccc3)CC2)cc1	8.09	
C=CCNC(=O)C(C)N(c1ccc(OCC)cc1)S(C)(=O)=O (stereo not given)	1.69 (inactive)	
Cc1sc(NC(=O)c2cccs2)c(C(=O)O)c1C	1.38 (inactive)	
CCN1CCN(C2CCC(C(C)(C)C)CC2)CC1 (stereo not given)	2.66 (inactive)	
Cc1ccc(OCCCCN2CCCC2)c(C)c1	6.28	
O=C(Nc1ccccc1C(=O)NCc1ccccc1)c1ccc([N+](=O)[O-])cc1	2.49 (inactive)	
Fc1ccc(N2CCN(CCc3ccccc3)CC2)cc1	9.42	
O=C(O)C1CCN(C(=O)c2ccc(F)cc2)CC1	1.24 (inactive)	
CCC1CCCCN1C(=O)c1ccc(Cl)cc1[N+](=O)[O-] (stereo not given)	1.87 (inactive)	
COc1ccc(S(=O)(=O)N(CC(=O)NC(C)C)c2cc(C)cc(C)c2)cc1OC	1.07 (inactive)	
C1=CC2CC1CC2CN1CCN(c2ccccc2)CC1 (stereo not given)		0.0846 µM
Cc1c(N/C=C/C(=O)c2cccs2)c(=O)n(-c2ccccc2)n1C	1.42 (inactive)	
CC(CNC(=O)c1ccc(C(C)(C)C)cc1)CN(C)C (stereo not given)		10.3 µM
OC(COc1ccc(Br)cc1)CN1CCCCCC1 (stereo not given)		10.6 µM (inactive)
CN(C)c1ccc(NC(=O)Nc2ccc3nc(-c4ccccn4)c(-c4ccccn4)nc3c2)cc1		1.33 µM
O=C1C2C3CCC(C3)C2C(=O)N1c1nccs1 (stereo not given)		13.5 µM (inactive)

Structure (SMILES)	fold change vs untreated, higher = more lipid [1]	EC50 [2]
Cc1cc(C(C)(C)C)ccc1OCCN1CCN(C)CC1		4.43 µM
CC(C)(C)c1ccc(OCCCCN2CCOCC2)cc1	3.88	
Cc1c(C(=O)Nc2ccc(F)c(F)c2)cccc1[N+](=O)[O-]		17.5 µM (inactive)
CC1(C)Oc2ccc(NC(=O)c3ccc(C(=O)c4ccccc4)cc3)cc2O1		8.94 µM (inactive)
OC(CNCCc1ccccc1)c1ccccc1 (stereo not given)		6.91 µM
CC(C)NC(=O)c1ccccc1NC(=O)c1ccc(Cl)cc1		0.59 µM (inactive)
COc1cc(Cl)c(S(=O)(=O)NCCCN2CCOCC2)cc1Cl		3.61 µM
Cc1ccc(C(C)C)cc1OCCCCN1CCOCC1		4.01 µM
Cc1ccc(OCCCCN2CCOCC2)cc1		4.2 µM
Clc1ccc(OCCCCN2CCCC2)c(Br)c1		2.55 µM
Cc1c(NC(=O)COc2ccc(Br)cc2)cccc1[N+](=O)[O-]		1.37 µM (inactive)
O=C(O)C1CC=CCC1C(=O)Nc1ccc(F)cc1F (stereo not given)		13.2 µM (inactive)
CCN(Cc1ccccc1)C(=O)C1CCN(Cc2ccccc2F)CC1		1.32 µM
COc1ccccc1NC(=O)N1CCN(c2ccccn2)CC1		4.11 µM
C1=CC2CC1CC2CN1CCN(Cc2ccco2)CC1 (stereo not given)		2.52 µM
COc1cccc(CN2CCN(C(=O)c3cc(OC)c(OC)c(OC)c3)CC2)c1OC	1.75 (inactive)	
O=C(C1COc2ccccc2O1)N1CCN(Cc2ccccc2)CC1 (stereo not given)		10.6 µM
CCOc1ccc(CN2CCN(c3ccccc3OC)CC2)cc1		1.32 µM
Cc1ccc(OCCCCN2CCCCC2)c(C)c1		11.3 µM
O=C(Nc1ccc(Cc2ccncc2)cc1)c1cc(Br)ccc1Cl		2.29 µM (inactive)
CN1CCCN(Cc2ccc([N+](=O)[O-])o2)CC1		15 µM (inactive)
Cc1cc(Cl)c(OCCn2ccnc2)c(Br)c1	5.38	
CCCCNc1cc(C)nc(N2CCOCC2)n1		13.1 µM

Structure (SMILES)	fold change vs untreated, higher = more lipid [1]	EC50 [2]
Cc1cc(C=O)c(C)n1-c1ccc(Br)cc1F		12 µM (inactive)
CN1CCN(Cc2ccc3c(c2)Cc2ccccc2-3)CC1		9.99 µM
CN(CC(O)COc1ccc(Br)cc1)C1CCCCC1 (stereo not given)		6.83 µM
CCc1ccc(CN2CCN(CCO)CC2)cc1		7.63 µM
Clc1ccc(N2CCN(Cc3ccsc3)CC2)cc1		1.27 µM
Clc1ccc(OCCCN2CCOCC2)c(Br)c1		10.5 µM
c1ccc(CCN2CCN(c3ccccc3)CC2)cc1		0.157 µM
Cc1ccc(NC(=O)CC(C)C)c(NC(=O)CC(C)C)c1		7.89 µM (inactive)
Cc1ccc(OCCCN2CCOCC2)c(C)c1		10.3 µM
CC(C)C(NS(=O)(=O)c1cccs1)C(C)C		21.6 µM (inactive)
NC(=O)c1cc(-c2ccccc2)sc1NC(=O)c1ccc(OC(F)F)cc1		0.155 µM
Cc1cc(Br)ccc1OCCCCN1CCCC1		2.71 µM
Cc1cc(OCCCCN2CCN(C)CC2)cc(C(C)C)c1		1.92 µM
Cc1cc(C)c(C)c(OCCCCN2CCOCC2)c1		15.1 µM
Cc1ccccc1OCCCCN1CCOCC1		9.79 µM
Clc1ccc(N2CCN(Cc3ccc4c(c3)OCO4)CC2)cc1		1.32 µM
CC(C)(C)c1csc(NC(=O)c2ccc(N3CCOCC3)c([N+](=O)[O-])c2)n1		2.66 µM
COc1cc2c(cc1OC)CN(Cc1ccc(F)cc1)CC2		9.96 µM
Cc1ccc(C)c(N2CCN(Cc3ccc([N+](=O)[O-])cc3)CC2)c1		1.29 µM
CCOc1ccc(C(=O)NCCNC(=O)c2ccc(OCC)cc2)cc1		19.9 µM (inactive)
COc1ccccc1Cn1c(C(C)O)nc2ccccc21 (stereo not given)	0.95 (inactive)	
O=C(Nc1ccc(S(=O)(=O)N2CCCC2)cc1)c1ccc(Cl)cc1Cl		2.32 µM (inactive)
CN1CCC(N(C)Cc2cccc(Oc3ccccc3)c2)CC1		10.1 µM

Structure (SMILES)	fold change vs untreated, higher = more lipid [1]	EC50 [2]
CCc1ccc(CN2CCN(CC)CC2)cc1		4.68 µM
O=S(=O)(c1ccc(Cl)c(Cl)c1Cl)N1CCN(c2ccc(F)cc2)CC1		0.0144 µM (inactive)
Cc1ccc(C(=O)Nc2ccc3oc(-c4ccncc4)nc3c2)cc1C		1.6 µM
COc1cc(C(=O)Nc2nc3c(s2)CCCC3)cc(OC)c1OC		0.379 µM (inactive)
C=C(C)CN(CC)C(=O)C1CCN(Cc2ccc(Cl)cc2)CC1		0.642 µM
Cc1ccc2nc(NC(=O)C3CC3)sc2c1		15.1 µM (inactive)
OCCN1CCN(C2C3CC4CC(C3)CC2C4)CC1 (stereo not given)		4.25 µM
CC1CCCC(N2CCN(Cc3ccccc3)CC2)C1 (stereo not given)		0.811 µM
CS(=O)(=O)N1CCN(C2C3CC4CC(C3)CC2C4)CC1 (stereo not given)		4.68 µM
c1ccc(CN2CCC(N3CCN(C4CC5CCC4C5)CC3)CC2)cc1 (stereo not given)		9.98 µM
Cc1cc(C)c(OCCCCN2CCNCC2)c(C)c1		2.62 µM
c1ccc(CN2CCN(C3CCCCC3)CC2)cc1		9.9 µM
Cc1cccc(N2CCN(C(=O)C3CCN(CC4CCCCC4)CC3)CC2)c1C		4.62 µM
Cc1cccc(-c2noc(COc3ccc(Br)cc3)n2)c1		9.11 µM (inactive)
O=S(=O)(c1ccc(F)cc1)N1CCN(C2CCCCC2)CC1		10.2 µM
COc1ccccc1N1CCN(C2CCN(Cc3cccc(Cl)c3)CC2)CC1		10.1 µM
O=[N+]([O-])c1ccc(CN2CCN(c3ccccc3)CC2)cc1		0.175 µM
O=[N+]([O-])c1ccc(CN2CCN(Cc3cc(Br)ccc3O)CC2)cc1		2.47 µM
Cc1cc(Br)ccc1OCCCCN1CCN(C)CC1		3.38 µM
CC(C)(C)c1ccc(OCC(O)CN2CCN(CCO)CC2)cc1 (stereo not given)		1.29 µM
CC1CCC(N2CCN(c3ccccc3)CC2)C1 (stereo not given)		0.629 µM
Cc1ccc(OCCCn2ccnc2)c(Br)c1		1.26 µM
CCc1ccc(CN2CCC(C(=O)N(CC)Cc3ccccc3)CC2)cc1		0.708 µM

Structure (SMILES)	fold change vs untreated, higher = more lipid [1]	EC50 [2]
O=C1CC(N2CCC(C(O)(c3ccccc3)c3ccccc3)CC2)C(=O)N1c1ccc(F)cc1 (stereo not given)		13.6 µM (inactive)
CN(Cc1ccc([N+](=O)[O-])cc1)C1CCCCC1		0.0878 µM
COc1cc(C)nc(NCc2ccccc2)n1		1.33 µM
Cc1cc(OCCN2CCN(C)CC2)ccc1C(C)C		2.56 µM
CCSc1ccc(C(=O)Nc2ccc(Cc3ccncc3)cc2)cc1[N+](=O)[O-]		2.64 µM
O=[N+]([O-])c1ccc(CN2CCN(Cc3ccccc3)CC2)cc1		6.26 µM
COc1cc(NC(=O)C(Cl)Cl)c(OC)cc1Cl	1.42 (inactive)	
C1=CC2CC1CC2CN1CCN(Cc2ccccc2)CC1 (stereo not given)		6.19 µM
Cc1ccc(CN2CCCC(CO)C2)cc1 (stereo not given)		10.1 µM
CCS(=O)(=O)N1CCN(C2CCCCCCC2)CC1		5.99 µM
Cc1ccc(C(=O)c2ccc(N3CCN(C)CC3)c([N+](=O)[O-])c2)cc1		2.59 µM (inactive)
Cc1ccc(C(=O)Nc2ccc(Cl)cc2C)cc1C		16.6 µM (inactive)
COc1ccc(CN2CCN(C/C=C/c3ccccc3)CC2)cc1		6.56 µM
COc1cccc(N2CCN(CC3CC4C=CC3C4)CC2)c1 (stereo not given)		1.26 µM
COc1ccccc1N1CCN(C2CCN(Cc3cccc(C)c3)CC2)CC1		10.4 µM
O=C(CN1CCCCC1)Nc1ncc(Cc2ccc(Br)cc2)s1		1.27 µM (inactive)
COc1cc(CN2CCN(Cc3ccccc3)CC2)cc(OC)c1		8.98 µM
O=[N+]([O-])c1ccc(C(O)CN2CCN(Cc3ccccc3)CC2)cc1 (stereo not given)		12.6 µM
CN1CCN(Cc2ccc(-c3ccccc3Cl)o2)CC1		3.34 µM
O=[N+]([O-])c1cccc(CNC2CCCCCC2)c1		1.1 µM
O=C(CN1CCCCC1)Nc1ncc(Cc2ccc(F)cc2)s1		0.0585 µM (inactive)
c1coc(CN2CCN(C3CCCCC3)CC2)c1		12.2 µM
Cc1cc(C(C)(C)C)ccc1OCCOCCN1CCN(C)CC1		0.566 µM (inactive)
